Experimental findings from patent US10035780B2, “Quinazoline scaffold based compounds, pharmaceutical compositions and methods of use thereof” (TECHNION RESEARCH & DEVELOPMENT FOUNDATION LTD., priority 2014, dated 2018) are described below.

The structures appear in SMILES notation. Entries after “also recorded” stand apart in the source; their conditions may differ. Like-named read-outs stand apart in the source and are kept apart here.

One data set relates to R6-2 mice. As to the kind of experiment: Lifespan of R6-2 mice, transgenic model for Huntington Disease. It counts as in vivo, mouse. The settings on record: daily s.c. injections 5 days a week from week 5, vs DMSO and saline. The source says:
For the assays described herein systemic injections of kainic in rats were applied and also contusion (Veenman et al. 2002; Soustiel et al. Neuropathol Appl Neurobiol. 2008; Soustiel et al. Exp Neurol. 2008). These models present very well defined cell death in the brain. Cell death in the brain is the major pathological characteristic of progressing neurodegeneration common to brain diseases. As the compounds of the present invention are designed to prevent cell death in the brain as a consequence of disease and progressing brain damage after injury, including behavioral impairments, animal models displaying cell death in the brain are the models of choice for displaying the protective capabilities of the compounds of the invention. For these reasons the R6-2 model for Huntington Disease was chosen to test the effectiveness of Compound 1 and to compare the effectiveness of Compound 1 with those of the compound of U.S. Pat. No. 8,541,428 (Cpd A) and with the classical TSPO ligand PK 11195, as well as other compounds disclosed herein. Compounds 5 and 6 were also tested in the same R6-2 model.
R6-2 is a transgenic mouse model for Huntington Disease. Huntington Disease in humans is a hereditary neurodegenerative disease affecting motor performance and finally leading to death of the patients having the disease. R6-2 mice (˜120 CAG repeats B6CBA-Tg(HDexon1)62 Gpb/3J) mice were used for the experiments described below. For this purpose, mice obtained from the Jackson Laboratory (ME) were bred. In particular: males genotype: Hemizygous for Tg(HDexon1)62 Gpb, and females from the wildtype background strain B6CBAF1/J were bred according to the protocol of Jackson Laboratory. The male heterozygote offspring (R6-2 mice) were used for determining life span and motor activity, with and without drug treatment. Drug treatment consisted of daily (5 continuous days a week) subcutaneous injections of mice with 20 μl of: saline (sham control), vehicle DMSO (vehicle control), classic TSPO ligand PK 11195 (15 mg/kg), prior art Compound A (15 mg/kg), Compound 1 (15 mg/kg), and compound 1 (7.5 mg/kg). Drug treatment started on week 5 after birth. Quantities were used according to previous studies regarding TSPO ligands.
Apart from the behavioral experiments, mice were observed daily, and the day of death was noted. Behavioral experiments included distance covered in an open field apparatus, and tremor measurements.
R6-2 mice were used as previously described in Example 5. In one experiment, treatment consisted of daily (5 continuous days per week) subcutaneous injections of mice with 20 μl of vehicle DMSO (control, n=10) and Compound 6 (7.5 mg/kg, n=12). In a separate experiment, compound 5 (7.5 mg/kg, n=5) was tested, compared to DMSO control (n=5).

The next data set is described as follows: Stability on storage. It counts as physicochemical. Conditions: several months of storage.
The next data set deals with U118MG cells. As to the kind of experiment: ROS generation at mitochondrial levels induced by glutamate (NAO dye). It counts as cell-based, human. The text has this: Techniques and parameters assayed are summarized here: Total protein levels (Bradford. Anal Biochem. 1976; 72:248-54); TSPO ligand binding assays (Kugler et al. 2008; Levin et al. 2005; Danovich et al. Eur Neuropsychopharmacol. 2008; 18:24-33) cell death, including apoptosis and necrosis and related molecular biological processes (Soustiel et al. Neuropathol Appl Neurobiol. 2008; 34:412-23; Soustiel et al. Exp Neurol. 2008; 214:201-8; Zeno et al. 2009); mitochondrial transmembrane potential collapse (Chelli et al. Biochem Pharmacol. 2004; 68:125-34; Kugler et al. 2008; Zeno et al., 2009; Shargorodsky et al. Apoptosis. 2012; 17:647-65), reactive oxygen species (ROS) generation as a measure of oxidative stress (Veenman et al. 2008; Zeno et al. 2009); TSPO knockdown (Levin et al. 2005; Zeno et al. 2009); expression levels of mitochondrial TSPO and associated proteins (Veenman et al. 2002; Levin et al. 2005; Veenman et al. 2008); gene expression with RT-PCR and microarray analysis (Bode et al. 2012; Veenman et al. 2012). Parameters of inflammation, immune response, migration, and the cell cycle are also tested. All these approaches can also be applied for quality control of the compounds.
Next, the fluorescent dye 10-N-Nonyl-Acridine Orange (NAO) was applied to measure reactive oxygen species (ROS) generation at mitochondrial levels. […]

Regarding `CCN(C)C(=O)Oc1nc(-c2ccccc2)nc2ccccc12` [Compound 1, 2-phenylquinazolin-4-yl ethyl(methyl)carbamate], the effect on lifespan entry in the data set on R6-2 mice is given as “increases average lifespan; also recorded: extends the life span”; in the data set with R6-2 mice (listed as compound 1), “enhanced lifespan”. The stability on storage result in “Stability on storage” is “stable over several months of storage”. For the same compound, the results for the “ROS generation at mitochondrial levels induced by glutamate” value in the data set on U118MG cells and with U118MG cells (listed as Cpd 1) were “prevents ROS generation” and “attenuated”, respectively.
